# Test results published in patent US10787423B2, “Piperazine and piperidine derivatives, their synthesis and use thereof in inhibiting VDAC oligomerization, apoptosis and mitochondria dysfunction” (THE NATIONAL INSTITUTE FOR BIOTECHNOLOGY IN THE NEGEV LTD., priority 2015, dated 2020).
# Like-named read-outs stand apart in the source and are kept apart here.
# Columns and labels:
# [1] = system: 5XFAD transgenic mice with AD-like disease; test: Radial-arm water maze learning and memory task in 5XFAD transgenic mice; assay type: in vivo, mouse; conditions: 5XFAD mice, 20 mg/kg in drinking water for 4 months, tested at six months of age
# Experimental: Animals at age two months were assigned to three groups: transgenic treated (TG-T, 8 males and 3 females), transgenic vehicle (TG-V, 8 males and 3 females), and wild type (WT, 10 males and 8 females).
# Two-months old 5XFAD mice were provided with 0.9% of DMSO solution or VBIT-4 solution (20 mg/kg in 0.9% DMSO) in drinking water replaced with fresh solution three times a week in the first month and thereafter twice a week for additional 3 months.
# When the mice reached the age of six months, a two-day radial-arm water maze (RAWM) trial was performed as described previously (Jennifer Alamed, et al, Nature Protocols 1, (2006) 1671-1679) to test the effect of VBIT-4 on learning and memory task. The RAWM containing six swim paths (arms) was used. The arms were extending out from an open central area with an escape platform located at the end of one arm (the goal arm). The goal arm location remained constant for a given mouse. On day 1, mice were trained for 15 trials (spaced over 3 h), with trials alternating between visible and hidden platforms. On day 2, mice were trained for 15 trials with the hidden platform.
# Entry into an incorrect arm was scored as an error, and the times spent by the animal to find the platform were recorded. […] To examine the source of differences the post-hoc test of Bonferroni-type was used. […]
# purified VDAC1 = biological target: T1, purified VDAC1 (Rattus norvegicus, UniProt Q9Z2L0); test: Microscale thermophoresis (MST) binding to purified VDAC1; conditions: MST, purified VDAC1 133 nM, 20 min incubation; means±SD (n=3); read-out: VDAC1 binding affinities
# T1 construct: rat liver mitochondria (5 mg/ml) in 10 mM Tris-HCl, pH 7.2, were incubated with 2% LDAO; from tissue; host or cells: rat liver mitochondria
# Experimental: To obtain quantitative parameters of this interaction and derive a dissociation constant, e.g. a microscale thermophoresis (MST) interaction assay may be performed. In this manner, dissociation values are derived from the curves showing the affinity of the compounds of the invention to VDAC.
# Briefly, rat liver mitochondria (5 mg/ml) in 10 mM Tris-HCl, pH 7.2, were incubated with 2% LDAO at 0° C. for 20 min, followed by centrifugation (30 min, 14,000 g) and the obtained supernatant was loaded onto a dry celite:hydroxyapatite (2:1) column. VDAC1 was eluted with a solution containing 2% LDAO, 10 mM Tris-HCl, pH 7.2, 50 mM NaCl, and 20 to 22 mM NaH2PO4, with VDAC1 detection by Coomassie blue staining. The VDAC1-containing fractions were dialyzed against 10 mM Tris-HCl, pH 7.2, and subjected to a second chromatography step on a carboxymethyl-cellulose (CMC) column from which VDAC1 was eluted with a solution containing 10 mM Tris-HCl, pH 7.2, 0.1% LDAO and 500 mM NaCl, detected as above. The VDAC1-containing fractions were collected and used for VDAC1 channel conductance and MST assays.
# MST analysis was performed using a NanoTemper Monolith NT.115 apparatus. […]
# Purified VDAC1 (133 nM), labeled using the NanoTemper fluorescent protein-labeling Kit BLUE (Nano Temper technologies, Munich, Germany), according to the manufactory instructions, was incubated with increasing concentrations of the following tested compounds: compound of Formula 10 (AKOS-022), compound of Formula 2 (VBIT-3), or racemic compound of Formula 1 (VBIT-4). After 20 min of incubation, the samples (3-5 μL) were loaded into MST-grade glass capillaries (Monolith NT Capillaries), and the thermophoresis process was measured using the Monolith-NT115 apparatus.
# Fmax and Fmin represent the maximal and minimal fluorescence, respectively and F the fluorescence measured in the presence of the tested compound.
# VDAC1 binding affinities of tested compounds were calculated from the MST measurements.
# [2] = system: Cyto c release from mitochondria; test: Selenite-induced Cytochrome c release from mitochondria in HEK-293 cells; assay type: cell-based; conditions: Homo sapiens, HEK293, compound 2 h then selenite 15 μM 4 h, means±SD (n=3)
# Experimental: One of the ways cell apoptosis is activated is by release of Cytochrome c (Cyto c) from the mitochondria into cytosol. […] Cyto c released to the cytosol may be analyzed by immunoblotting using Cyto c-specific antibodies.
# Cells treated with apoptosis inducers in the absence or presence of the tested compounds were harvested, washed twice with PBS, pH 7.4 and gently resuspended at 6 mg/ml in ice-cold buffer (100 mM KCl, 2.5 mM MgCl2, 250 mM sucrose, 20 mM HEPES/KOH pH 7.5, 0.2 mM EDTA, 1 mM dithiothreitol, 1 μg/ml leupeptin, […] and 0.1 mM PMSF) containing 0.025% digitonin and incubated for 10 min on ice. Samples were centrifuged at 10,000×g (relative centrifugal force—RCF) at 4° C. for 5 min to obtain supernatants (cytosolic extracts free of mitochondria) and pellet (fraction that contains mitochondria). Cytochrome c released to the cytosol was analyzed by immunoblotting using Cytochrome c-specific antibodies. Anti-VDAC1 and anti-GAPDH antibodies were used to verify that the cytosolic extracts are mitochondria-free.
# c. Cytochrome c (Cyto c) release was determined as described above in Methods (Cytochrome c release from mitochondria). Briefly, to assess Cyto c release, cells were incubated on ice for 10 min with 0.025% digitonin, centrifuged, and the pellet (mitochondria—Mito) and supernatants (cytosol—Cytos) were subjected to SDS-PAGE and immunoblotting, using anti-Cyto c, antibodies. Anti-VDAC1 and anti-GAPDH antibodies were used to verify that the cytosolic extracts are mitochondria-free. The results of Cyto c release from the mitochondria as induced by selenite are presented as immunoblots, with the cytosolic and mitochondrial fractions confirmed by immunoblotting of GAPDH (glyceraldehyde-3-phosphate dehydrogenase) and VDAC1, respectively, in the FIG. 15d. The data are presented as percent inhibition. The results shown correspond to means±SD (n=3). The closed circle (●) indicates VBIT-4 (compound of Formula 1), the open circle (◯) indicates compound of Formula 10 (AKOS-022), and an open square (□) indicates VBIT-3 (compound of Formula 2).
# d. […]
# SHSY5Y cells = test: 6-hydroxydopamine-induced cell toxicity, XTT cell viability; assay type: cell-based; conditions: for IC50: Homo sapiens, SH-SY5Y, 24 h, read-out: IC50 (cell viability protection)
# Experimental: SHSY5Y (obtained from ATCC) were grown at 37° C. under an atmosphere of 95% air and 5% CO2 in DMEM medium supplemented with 10% fetal bovine serum, 2 mM L-glutamine, 1000 U/ml penicillin, and 1 mg/ml streptomycin until 60-70% of confluence. Further, the cells were incubated with increasing concentrations of 6-hydroxydopamine. After 24 hours, and cells viability was assayed using the XTT (2,3-bis-(2-methoxy-4-nitro-5-sulfophenyl)-2H-tetrazolium-5-carboxanilide) method, according to the supplier instructions. […] The 50% decrease in cell survival was obtained at about 50 μM of 6-hydroxydopamine.
# Cell viability as assayed following 24 h incubation with different concentrations of 6-hydroxydopamine in the absence (closed squares (▪)) or in the presence of VBIT-12 (15 μM, closed circles (●)) is shown.
# Similarly, cells that were incubated with increasing concentrations of VBIT-12 in presence of either 30 or 50 μM of 6-hydroxydopamine that decreased cell viability by […], respectively, remained viable after 24 hours of the incubation. Cells viability is charted in FIG. 24C versus the concentrations of VBIT-12. Closed squares (▪) indicate control group without 6-hydroxydopamine, open circles (◯) indicates cells' viability when exposed to 30 μM of the 6-hydroxydopamine, and closed circles (●) indicate cells viability at 50 μM of the 6-hydroxydopamine.
# VDAC1 = VDAC1 (Homo sapiens, UniProt P21796); test: Selenite-induced VDAC1 oligomerization in HeLa cells, EGS cross-linking; assay type: cell-based; parameters: endogenous in cells; host or cells: HeLa; conditions: 22 h with selenite 8 μM and increasing concentrations
# Experimental: Appropriate test cells (2.5-3 mg/ml) in PBS, were harvested after the treatment and incubated with the cross-linking reagent EGS at a ratio of 100-300 μM for sample of 2-3 mg protein/ml concentration (pH 8.3) for 15 minutes. Protein concentration was determined according to Lowry assay. Samples (60-80 μg protein) were subjected to SDS-PAGE by a standard technique and immunoblotting was performed using anti-VDAC1 antibodies. Gels were electro-transferred onto nitrocellulose membranes for immuno-staining. The membranes were incubated with a blocking solution containing 5% non-fat dry milk and 0.1% Tween-20 in Tris-buffered saline, followed by incubation with monoclonal anti-VDAC1, anti-Cytochrome c, anti-AIF or anti-actin antibodies. Membranes were then incubated with HRP-conjugated anti-mouse or anti-rabbit IgG (1:10,000), serving as secondary antibodies. Antibody labeling was detected by chemiluminescence. […] Quantitative analysis of immuno-reactive VDAC1 dimer, trimer and multimer bands was performed using FUSION-FX (Vilber Lourmat, France).
# Cells (2.5 mg/ml) were washed with and resuspended in PBS, pH 8.3 and incubated with membrane-permeable cross-linker EGS (250 μM) at 30° C. for 15 min and then subjected to SDS-PAGE and immunoblotting using anti-VDAC1 antibodies. […] Cell death was analyzed using propidium iodide (PI) staining and flow cytometry.
# VDAC1, sequence (P21796 whole entry): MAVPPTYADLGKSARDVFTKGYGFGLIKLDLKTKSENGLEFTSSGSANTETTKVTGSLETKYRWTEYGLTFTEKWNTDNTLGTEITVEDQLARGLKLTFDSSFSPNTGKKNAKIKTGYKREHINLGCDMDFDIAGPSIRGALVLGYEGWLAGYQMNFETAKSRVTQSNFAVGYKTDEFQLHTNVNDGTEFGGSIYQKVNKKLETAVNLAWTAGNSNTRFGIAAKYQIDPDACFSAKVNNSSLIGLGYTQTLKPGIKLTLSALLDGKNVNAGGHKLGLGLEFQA
# T1 sequence (Q9Z2L0 whole entry): as the sequence (P21796 whole entry) above, with T55N, M129V, A160S, I227V counted along it
Kd (purified VDAC1),IC50 [2],selenite-induced VDAC1 oligomerization (VDAC1),SMILES,RAWM number of errors [1],RAWM total time spent [1],"protection against 6-hydroxydopamine-induced decreased cell viability (SHSY5Y cells; 15 μM VBIT-12, 24 h, different 6-hydroxydopamine concentrations)",IC50 (SHSY5Y cells; 30 μM 6-hydroxydopamine),IC50 (SHSY5Y cells; 50 μM 6-hydroxydopamine)
17000 ± 5300 nM,1800 ± 240 nM,,"O=C(CC(CO)N1CCN(c2ccc(OC(F)(F)F)cc2)CC1)Nc1ccc(Cl)cc1 (racemic) [Formula 1, N-(4-chlorophenyl)-4-hydroxy-3-(4-(4-(trifluoromethoxy)phenyl)-piperazin-1-yl)butanamide]",better than untreated TG,better than untreated TG,,,
,,Inhibited,O=C(O)CNC(=O)C1(Nc2ccccc2)CCN(Cc2cccc3ccccc23)CC1 [Formula 3],,,protected against the reduction of cell survival by all 6-hydroxydopamine concentration used,~1000 nM,~2000 nM
